Legend:
[1] = tested on: Septoria tritici; assay: Assay for fungicidal effect on Septoria tritici, plate medium 0.02 mg/L (Experimental Example 7); type: cell-based; details: Zymoseptoria tritici, read-out: grade (growth inhibition grade)
Text: In this Experimental Example, the fungicidal effects of the inventive compounds on a phytopathogenic fungi, Septoria tritici were examined and compared to the Comparative Compound (3) described in Patent Literature 1 (JPA01-93574) by the methods described below. […] The subject microorganism previously cultured on a plate medium was cut out using a cork borer whose diameter was 4 mm, and inoculated to the test compound-containing plate medium described above. […] The growth degree of the microorganism on the test compound-containing plate medium thus observed was compared with the growth degree of the microorganism in the untreated group, and % mycelial growth inhibition was calculated by the following equation. R=100(dc−dt)/dc wherein R=% mycelial extension inhibition, dc=flora diameter in untreated plate, dt=flora diameter in treated plate. The results obtained as described above were evaluated as one of the 5 grades according to the following criteria. <Growth Inhibition Grade> […]

[2] = tested on: Puccinia recondita; assay: Efficacy test against wheat brown rust, 2 mg/L (Experimental Example 8); type: in vivo; parameters: key: 0: No onset; 0.5: Less than 1%; 1% or higher and less than 5%; 2: 5% or higher and less than 10%; 10% or higher and less than 30%; 4: 30% or higher and less than 50%; 50% or higher; details: sprayed at 1,000 L/ha, concentration printed 0.02 mg/L, 9 to 14 days after inoculation
Method: Onto a wheat plant (variety: […] The sprayed leaves were air-dried, and inoculated with spore suspension of Puccinia recondita (adjusted at 200 spores/vision, […] was added at 60 ppm) by spraying, and kept at 25 degrees C. and a high humidity for 48 hours. Thereafter, the plant was kept in a greenhouse. Nine to 14 days after inoculation, the wheat brown rust lesion degree was investigated, and the protective value was calculated by the following equation. Protective value (%)=(1-lesion degree in sprayed plot/lesion degree in unsprayed plot)×100

| SMILES | inhibition at 0.02 µg/mL [1] | degree (wheat brown rust lesion degree) [2] |
| --- | --- | --- |
| C[C@]1(CCl)CC[C@@H](Cc2ccc(F)cc2)[C@]1(O)Cn1cncn1 (racemic) [Compound I-77, (1RS,2SR,5SR)-2-chloromethyl-5-(4-fluorobenzyl)-2-methyl-1-(1H-1,2,4-triazol-1-ylmethyl)cyclopentanol] | > 80% | 0 |
| C[C@]1(CCl)CC[C@@H](Cc2ccccc2)[C@]1(O)Cn1cncn1 (racemic) [Compound I-73, (1RS,2SR,5SR)-2-chloromethyl-5-benzyl-2-methyl-1-(1H-1,2,4-triazol-1-ylmethyl)cyclopentanol] | > 80% |  |
